# Legend:
# KPC producers = assay: microdilution with carbapenems; format: cell-based
# Outline: (§1)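 Chequerboard layout: tested agent in three two-fold steps (4–16 mg/L) crossed with seven β-lactam dilutions (1–64 mg/L), meropenem for KPC strains and ceftazidime for the cAmpC strain. FICI from first non-growth wells, off-scale MICs raised one doubling; ≤0.5 counts as synergy, >4 antagonism.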
# [1] = test system: E. coli 76 KPC-2-positive; assay: checkerboard microdilution, antibiotic plus tested agent; format: cell-based, Escherichia coli
# Outline: as §1
# [2] = test system: E. coli 77 CMY-2-positive; assay: as above; format: cell-based, Escherichia coli
# Outline: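 β-lactam 1–64 mg/L × agent/PBA 4–16 mg/L checkerboard; meropenem vs carbapenemase producers, ceftazidime vs AmpC producer; imipenem, ertapenem added for selected agents. Readout: combination MICs, FICI (average and lowest); off-scale MICs taken as next doubling.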
# E. faecium ATCC 6057 = assay: direct antimicrobial activity (disc-diffusion, MIC, MBC); format: cell-based; conditions: Enterococcus faecium, ATCC6057
# Outline: (§2)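 Diboronic acids (DMSO solutions) at 0.4 mg per disc were used for diffusion testing. Dilution endpoints were MIC, MBC and MFC, per CLSI and EUCAST recommendations.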
# [3] = test system: S. aureus ATCC 43300 MRSA; assay: as above; format: cell-based; conditions: Staphylococcus aureus
# Outline: as §2
# [4] = test system: S. epidermidis ATCC 12228; assay: as above; format: cell-based; conditions: Staphylococcus epidermidis, ATCC12228
# Outline: as §2
# S. aureus ATCC 6538P = assay: as above; format: cell-based; conditions: Staphylococcus aureus, ATCC6538P
# Outline: as §2
# E. faecalis ATCC 29212 = assay: as above; format: cell-based; conditions: Enterococcus faecalis, ATCC29212
# Outline: as §2
# [5] = test system: P. aeruginosa MUW 700 AmpC(+); assay: screening test of direct antimicrobial activity (STDA), disc-diffusion; format: cell-based; conditions: Pseudomonas aeruginosa, - no zone, read-out: Diameter of inhibition zone around disc with tested agent; for zone of inhibition at 300 µg/disc: 0.3 mg per disc
# Experimental: (§3) Prior to combination disc tests, screening tests of direct antimicrobial activity (STDA) of the tested agent against β-lactamase-producing strains were performed by the disc-diffusion method. Discs with 0.3 mg, 0.1 mg, and 0.03 mg of each agent were examined. The highest amount of an agent that caused no effect on bacterial growth was used in further experiments.
# E. coli 77 CMY-2(+) = assay: as above; format: cell-based; conditions: Escherichia coli, - no zone, read-out: Diameter of inhibition zone around disc with tested agent; for zone of inhibition at 300 µg/disc: 0.3 mg per disc
# Experimental: as §3
# [6] = test system: K. pneumoniae ATCC 700603 ESBL(+); assay: as above; format: cell-based; conditions: Klebsiella pneumoniae, ATCC700603, - no zone, read-out: Diameter of inhibition zone around disc with tested agent; for zone of inhibition at 300 µg/disc: 0.3 mg per disc
# Experimental: as §3
# [7] = test system: K. pneumoniae ATCC BAA 1705 KPC(+); assay: as above; format: cell-based; conditions: Klebsiella pneumoniae, BAA1705, - no zone, read-out: Diameter of inhibition zone around disc with tested agent; for zone of inhibition at 300 µg/disc: 0.3 mg per disc
# Experimental: as §3
# [8] = test system: K. pneumoniae 83 KPC-3-positive, CTX-M-3-positive; assay: checkerboard microdilution, antibiotic plus tested agent; format: cell-based, Klebsiella pneumoniae
# Outline: as §1
# [9] = test system: K. pneumoniae ATCC BAA-1705 KPC-2-positive; assay: as above; format: cell-based, Klebsiella pneumoniae
# Outline: as §1
# [10] = test system: K. pneumoniae 81 KPC-3-positive; assay: as above; format: cell-based, Klebsiella pneumoniae
# Outline: as §1
# [11] = test system: K. pneumoniae ATCC 700603 ESBL-positive; assay: combination disc test CDT-ESBL; format: cell-based; conditions: Klebsiella pneumoniae, ATCC700603, read-out: Diameter of inhibition zone, CAZ-30 disc with agent
# B. subtilis ATCC 6633 = assay: direct antimicrobial activity (disc-diffusion); format: cell-based; conditions: Bacillus subtilis, ATCC6633; 0.4 mg per disc, 9 mm disc (linezolid 0.03 mg, 6 mm disc); - no zone; read-out: Diameter of inhibition zone
# Outline: as §2
compound,measurement,setting,value
"OB(O)c1cc(F)ccc1F [7a, 2,5-difluorophenylboronic acid]","carbapenems' MIC reduction, up to",KPC producers; agent 4 mg/L,≤ 2 fold
same,"carbapenems' MIC reduction, up to",KPC producers; agent 8 mg/L,up to 8 fold
same,Average FICI with ERT,[1],0.51
same,Average FICI with IMI,[1],0.30
same,Average FICI with MEM,[1],0.51
same,The lowest FICI with ERT,[1],0.41
same,The lowest FICI with IMI,[1],0.29
same,The lowest FICI with MEM,[1],0.41
same,Average FICI with ceftazidime,[2],0.17
same,The lowest FICI with ceftazidime,[2],0.14
same,MIC,E. faecium ATCC 6057,400 mg/L
same,MIC,[3],100 mg/L
same,MIC,[4],100 mg/L
same,MIC,S. aureus ATCC 6538P,50 mg/L
same,MIC,E. faecalis ATCC 29212,400 mg/L
same,zone of inhibition at 100 µg/disc,[5]; 0.1 mg per disc,11 mm
same,zone of inhibition at 300 µg/disc,[5],12 mm
same,zone of inhibition at 100 µg/disc,E. coli 77 CMY-2(+); 0.1 mg per disc,13 mm
same,zone of inhibition at 300 µg/disc,E. coli 77 CMY-2(+),18 mm
same,zone of inhibition at 100 µg/disc,[6]; 0.1 mg per disc,18 mm
same,zone of inhibition at 300 µg/disc,[6],18 mm
same,zone of inhibition at 100 µg/disc,[7]; 0.1 mg per disc,12 mm
same,zone of inhibition at 300 µg/disc,[7],17 mm
same,Average FICI with ERT,[8],0.51
same,Average FICI with IMI,[8],0.30
same,Average FICI with MEM,[8],0.47
same,The lowest FICI with ERT,[8],0.41
same,The lowest FICI with IMI,[8],0.29
same,The lowest FICI with MEM,[8],0.29
same,Average FICI with ERT,[9],0.76
same,Average FICI with IMI,[9],0.43
same,Average FICI with MEM,[9],0.51
same,The lowest FICI with ERT,[9],0.58
same,The lowest FICI with IMI,[9],0.33
same,The lowest FICI with MEM,[9],0.41
same,Average FICI with ERT,[10],0.46
same,Average FICI with IMI,[10],0.21
same,Average FICI with MEM,[10],0.23
same,The lowest FICI with ERT,[10],0.33
same,The lowest FICI with IMI,[10],0.17
same,The lowest FICI with MEM,[10],0.14
same,zone of inhibition at 30 µg/disc,[11]; agent 0.03 mg per disc,15 mm
OB(O)c1cc(F)c(B(O)O)c(F)c1 [1d],zone of inhibition at 0.4 mg/disc,B. subtilis ATCC 6633,15 mm
same,Average FICI with ERT,[1],0.36
same,Average FICI with IMI,[1],0.44
same,Average FICI with MEM,[1],0.44
same,The lowest FICI with ERT,[1],0.27
same,The lowest FICI with IMI,[1],0.29
same,The lowest FICI with MEM,[1],0.29
same,Average FICI with ceftazidime,[2],0.23
same,The lowest FICI with ceftazidime,[2],0.17
same,MIC,E. faecium ATCC 6057,> 400 mg/L
same,MIC,[3],200 mg/L
same,MIC,[4],25 mg/L
same,zone of inhibition at 0.4 mg/disc,"[4]; 0.4 mg per disc, 9 mm disc (linezolid 0.03 mg, 6 mm disc), - no zone, read-out: Diameter of inhibition zone",21 mm
same,MIC,S. aureus ATCC 6538P,25 mg/L
same,MIC,E. faecalis ATCC 29212,> 400 mg/L
same,zone of inhibition at 300 µg/disc,[5],12 mm
same,zone of inhibition at 300 µg/disc,E. coli 77 CMY-2(+),13 mm
same,zone of inhibition at 300 µg/disc,[6],14 mm
same,zone of inhibition at 300 µg/disc,[7],15 mm
same,Average FICI with ERT,[8],0.69
same,Average FICI with IMI,[8],0.52
same,Average FICI with MEM,[8],0.61
same,The lowest FICI with ERT,[8],0.52
same,The lowest FICI with IMI,[8],0.51
same,The lowest FICI with MEM,[8],0.29
same,Average FICI with ERT,[9],0.86
same,Average FICI with IMI,[9],0.69
same,Average FICI with MEM,[9],0.44
same,The lowest FICI with ERT,[9],0.54
same,The lowest FICI with IMI,[9],0.52
same,The lowest FICI with MEM,[9],0.29
same,Average FICI with ERT,[10],0.40
same,Average FICI with IMI,[10],0.36
same,Average FICI with MEM,[10],0.29
same,The lowest FICI with ERT,[10],0.17
same,The lowest FICI with IMI,[10],0.27
same,The lowest FICI with MEM,[10],0.10
same,zone of inhibition at 100 µg/disc,[11]; agent 0.1 mg per disc,14 mm

# — paper PMC10648349, “Aromatic Diboronic Acids as Effective KPC/AmpC Inhibitors” (Molecules, 2023)
